Blank lines part the entries; values can stand above or below the molecule they belong to. Activity calls are given as the source filed them. No cut-off for these calls is given here.
Legend:
[1] = molecular target: POU domain, class 5, transcription factor 1 (Homo sapiens) (UniProt Q01860); assay: Activation of human Oct3/4 in HEK293 cells transfected with firefly luciferase gene assessed as relative luciferase activity after 72 hrs by luminometer plate reader relative to DMSO control; format: cell-based
[2] = molecular target: POU domain, class 5, transcription factor 1 (Homo sapiens) (UniProt Q01860); assay: Activation of human Oct3/4 in NCCIT cells transfected with firefly luciferase gene assessed as relative luciferase activity after 72 hrs by luminometer plate reader relative to DMSO control; format: cell-based
HEK293 [3] = assay: Induction of human Nanog protein expression in HEK293 cells assessed as increase in protein expression at 0.5 to 20 uM after 48 hrs by immunoblotting analysis relative to DMSO control; format: functional, cell-based
[4] = molecular target: POU domain, class 5, transcription factor 1 (Homo sapiens) (UniProt Q01860); assay: Activation of human Oct3/4 in HEK293 cells transfected with firefly luciferase gene assessed as relative luciferase activity after 48 to 72 hrs by luminometer plate reader relative to DMSO control; format: cell-based
HEK293 [5] = assay: Induction of human Sox2 protein expression in HEK293 cells assessed as increase in protein expression at 10 uM after 24 hrs by immunoblotting analysis relative to DMSO control; format: functional, cell-based
HEK293 [6] = assay: Induction of human Oct3/4 expression in HEK293 cells transfected with firefly luciferase gene assessed as increase in mRNA level at 20 uM after 72 hrs by qRT-PCT analysis; format: functional
[7] = molecular target: POU domain, class 5, transcription factor 1 (Homo sapiens) (UniProt Q01860); assay: Activation of human Oct3/4 in HEK293 cells transfected with firefly luciferase gene assessed as luciferase signal by luminometer plate reader relative to DMSO control; format: cell-based
HEK293 [8] = assay: Induction of human Oct3/4 protein expression in HEK293 cells assessed as increase in protein expression at 6 uM after 48 hrs by immunoblotting analysis relative to DMSO control; format: functional, cell-based
HEK293 [9] = assay: Induction of human Sox2 protein expression in HEK293 cells assessed as increase in protein expression at 10 uM after 48 hrs by immunoblotting analysis relative to DMSO control; format: functional, cell-based
HEK293 [10] = assay: Induction of human Oct3/4 protein expression in HEK293 cells assessed as increase in protein expression at 10 uM after 24 hrs by immunoblotting analysis relative to DMSO control; format: functional, cell-based
HEK293 [11] = assay: Induction of human Sox2 protein expression in HEK293 cells assessed as increase in protein expression at 0.5 to 20 uM after 48 hrs by immunoblotting analysis relative to DMSO control; format: functional, cell-based
[12] = molecular target: POU domain, class 5, transcription factor 1 (Homo sapiens) (UniProt Q01860); assay: Activation of human Oct3/4 in HEK293 cells transfected with firefly luciferase gene assessed as relative luciferase activity at 5 uM by luminometer plate reader relative to DMSO control; format: cell-based; settings: TDE = time-dependent effect
[13] = molecular target: POU domain, class 5, transcription factor 1 (Homo sapiens) (UniProt Q01860); assay: Activation of human Oct3/4 in HEK293 cells transfected with firefly luciferase gene assessed as relative luciferase activity at 5 uM after 72 hrs by luminometer plate reader relative to DMSO control; format: cell-based
HEK293 [14] = assay: Induction of human Oct3/4 expression in HEK293 cells transfected with firefly luciferase gene assessed as increase in mRNA level at 10 uM after 72 hrs by qRT-PCT analysis; format: functional
HEK293 [15] = assay: Induction of human Oct3/4 protein expression in HEK293 cells assessed as increase in protein expression after 48 hrs by immunoblotting analysis relative to DMSO control; format: functional, cell-based
HEK293 [16] = assay: Induction of human Oct3/4 protein expression in HEK293 cells assessed as increase in protein expression at 10 uM after 48 hrs by immunoblotting analysis relative to DMSO control; format: functional, cell-based
[17] = molecular target: POU domain, class 5, transcription factor 1 (Homo sapiens) (UniProt Q01860); assay: Activation of human Oct3/4 in HEK293 cells transfected with firefly luciferase gene assessed as relative luciferase activity at 5 uM after 48 hrs by luminometer plate reader relative to DMSO control; format: cell-based
Fibroblast [18] = assay: Induction of human Oct3/4 protein expression in human adult primary fibroblasts assessed as increase in protein expression at 10 uM after 72 hrs by immunoblotting analysis relative to control; format: functional, cell-based
[19] = molecular target: Homeobox protein NANOG (Homo sapiens) (UniProt Q9H9S0); assay: Activation of human Nanog in NCCIT cells transfected with firefly luciferase gene assessed as relative luciferase activity up to 72 hrs by luminometer plate reader relative to DMSO control; format: cell-based
HEK293 [20] = assay: Induction of human Sox2 protein expression in HEK293 cells assessed as increase in protein expression at 10 uM after 96 hrs by immunoblotting analysis relative to DMSO control; format: functional, cell-based
HEK293 [21] = assay: Induction of human Oct3/4 protein expression in HEK293 cells assessed as increase in protein expression at 10 uM after 96 hrs by immunoblotting analysis relative to DMSO control; format: functional, cell-based
HFF = assay: Induction of human Oct3/4 protein expression in human neonatal foreskin fibroblasts assessed as increase in protein expression at 10 uM after 72 hrs by immunoblotting analysis relative to control; format: functional, cell-based
Fibroblast [22] = assay: Induction of human Rex1 gene expression in human adult primary fibroblasts assessed as increase in mRNA level at 20 uM after 48 hrs by qRT-PCR analysis relative to control; format: functional
Fibroblast [23] = assay: Induction of human Sox2 protein expression in human adult primary fibroblasts assessed as positive cells normalized to total number of cells; format: functional
Fibroblast [24] = assay: Induction of human Oct3/4 protein expression in human adult primary fibroblasts assessed as increase in protein level at 20 uM after 5 days by Hoechst 33258 staining based immunostaining relative to control; format: functional, cell-based
Fibroblast [25] = assay: Induction of human Oct3/4 protein expression in human adult primary fibroblasts assessed as increase in protein expression at 20 uM after 72 hrs by immunoblotting analysis relative to control; format: functional, cell-based
[26] = molecular target: POU domain, class 5, transcription factor 1 (Homo sapiens) (UniProt Q01860); assay: Activation of human Oct3/4 in human adult primary fibroblasts at 20 uM by immunoblotting analysis relative to control; settings: TDE = time-dependent effect
NCCIT [27] = assay: Induction of Oct3/4 accumulation in human NCCIT cells at 10 uM after 48 hrs by immunolotting analysis; format: functional, cell-based
Fibroblast [28] = assay: Induction of human Sox2 protein expression in human adult primary fibroblasts assessed as increase in protein level at 20 uM after 5 days by Hoechst 33258 staining based immunostaining relative to control; format: functional, cell-based
Fibroblast [29] = assay: Induction of human Oct3/4 and Sox2 protein expression in human adult primary fibroblasts assessed as positive cells normalized to total number of cells; format: functional, cell-based
Fibroblast [30] = assay: Induction of human Oct3/4 protein expression in human adult primary fibroblasts assessed as positive cells normalized to total number of cells; format: functional
HeLa [31] = assay: Induction of Nanog accumulation in human HeLa cells at 10 uM after 48 hrs by immunolotting analysis; format: functional, cell-based
Fibroblast [32] = assay: Induction of human Nanog protein expression in human adult primary fibroblasts assessed as increase in protein expression at 20 uM after 72 hrs by immunoblotting analysis relative to control; format: functional, cell-based
Fibroblast [33] = assay: Induction of human Lin28 protein expression in human adult primary fibroblasts assessed as increase in protein expression at 20 uM after 72 hrs by immunoblotting analysis relative to control; format: functional, cell-based
Fibroblast [34] = assay: Induction of human Oct3/4 gene expression in human adult primary fibroblasts assessed as increase in mRNA level at 20 uM after 48 hrs by qRT-PCR analysis relative to control; format: functional
Fibroblast [35] = assay: Induction of human Nanog protein expression in human adult primary fibroblasts assessed as increase in protein level at 20 uM after 5 days by Hoechst 33258 staining based immunostaining relative to control; format: functional, cell-based
Fibroblast [36] = assay: Induction of cell cycle arrest in human adult primary fibroblasts assessed as accumulation of cells at G1 phase at 20 uM after 5 days by propidium iodide staining assay (reference value: 74%); format: functional
Fibroblast [37] = assay: Induction of cell cycle arrest in human adult primary fibroblasts assessed as accumulation of cells at S phase at 20 uM after 5 days by propidium iodide staining assay (reference value: 2%); format: functional
NCCIT [38] = assay: Induction of Nanog accumulation in human NCCIT cells at 10 uM after 48 hrs by immunolotting analysis; format: functional, cell-based
Fibroblast [39] = assay: Induction of human Klf4 gene expression in human adult primary fibroblasts assessed as increase in mRNA level at 20 uM after 48 hrs by qRT-PCR analysis relative to control; format: functional
Fibroblast [40] = assay: Induction of human c-Myc gene expression in human adult primary fibroblasts assessed as increase in mRNA level at 20 uM after 48 hrs by qRT-PCR analysis relative to control; format: functional
Fibroblast [41] = assay: Induction of human KLF4 protein expression in human adult primary fibroblasts assessed as increase in protein level at 20 uM after 5 days by Hoechst 33258 staining based immunostaining relative to control; format: functional, cell-based
HeLa [42] = assay: Induction of Oct3/4 accumulation in human HeLa cells at 10 uM after 48 hrs by immunolotting analysis; format: functional, cell-based
Fibroblast [43] = assay: Induction of human Nanog gene expression in human adult primary fibroblasts assessed as increase in mRNA level at 20 uM after 48 hrs by qRT-PCR analysis relative to control; format: functional
Fibroblast [44] = assay: Induction of human Sox2 protein expression in human adult primary fibroblasts assessed as increase in protein expression at 20 uM after 72 hrs by immunoblotting analysis relative to control; format: functional, cell-based
Fibroblast [45] = assay: Induction of human E-Cadherin level in human adult primary fibroblasts assessed as increase in protein level at 20 uM after 72 hrs by FACS analysis relative to control; format: functional, cell-based

Sequence of POU domain, class 5, transcription factor 1 (Homo sapiens) (Q01860 whole entry, the tested form may be a part): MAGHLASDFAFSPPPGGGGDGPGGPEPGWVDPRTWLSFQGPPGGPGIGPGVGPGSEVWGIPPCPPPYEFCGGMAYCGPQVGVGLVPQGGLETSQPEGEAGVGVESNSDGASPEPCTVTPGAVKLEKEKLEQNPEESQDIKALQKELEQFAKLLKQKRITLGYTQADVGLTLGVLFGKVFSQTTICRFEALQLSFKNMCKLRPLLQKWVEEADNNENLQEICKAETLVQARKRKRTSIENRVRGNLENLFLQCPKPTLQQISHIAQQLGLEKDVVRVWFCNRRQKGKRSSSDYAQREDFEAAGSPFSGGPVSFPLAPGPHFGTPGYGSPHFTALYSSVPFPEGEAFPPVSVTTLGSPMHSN
Sequence of Homeobox protein NANOG (Homo sapiens) (Q9H9S0 whole entry): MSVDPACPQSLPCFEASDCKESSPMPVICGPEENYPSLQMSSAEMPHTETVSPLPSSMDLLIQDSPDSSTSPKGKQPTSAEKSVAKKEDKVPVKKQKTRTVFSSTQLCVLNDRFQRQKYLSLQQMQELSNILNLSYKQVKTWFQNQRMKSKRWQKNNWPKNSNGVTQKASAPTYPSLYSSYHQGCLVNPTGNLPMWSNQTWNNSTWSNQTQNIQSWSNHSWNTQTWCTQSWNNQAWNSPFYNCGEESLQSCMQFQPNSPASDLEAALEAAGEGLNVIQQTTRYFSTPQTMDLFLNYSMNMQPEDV

SMILES: N#CCc1ccc(OCc2ccc(OC(F)(F)F)cc2)cc1
RLU [1]: 4.9 | RLU [2]: 2.14

SMILES: N#CCc1ccc(OCc2ccc([N+](=O)[O-])cc2)cc1
RLU [1]: 4.02 | RLU [2]: 2.61

SMILES: COc1ccc(COc2ccc(C#N)cc2)cc1
RLU [1]: 3 | RLU [2]: 0.99

SMILES: N#Cc1ccc(OCc2ccc(F)cc2)cc1
RLU [1]: 5.83 | RLU [2]: 2.26

SMILES: N#Cc1ccc(OCc2ccc(OC(F)(F)F)cc2)cc1
RLU [1]: 3.4 | RLU [2]: 1.5

SMILES: N#CCc1ccc(OCc2ccc(-c3ccccc3)cc2)cc1
RLU [1]: 0.84 | RLU [2]: 0.73

SMILES: N#CCc1ccc(OCc2ccc(C#N)cc2)cc1
RLU [1]: 1.79 | RLU [2]: 1.88

SMILES: N#Cc1ccc(OCc2ccc([N+](=O)[O-])cc2)cc1
RLU [1]: 2.65 | RLU [2]: 1.08

Second part, led by results:

RLU [1]: 2 | RLU [2]: 2.26
SMILES: Cc1ccc(COc2ccc(CC#N)cc2)cc1

Activity [4]: Dose-dependent effect | fold change (FC) [7]: 5 | RLU [1]: 3.85 | Activity [12]: tde | fold change (FC) [13]: 3 | RLU [2]: 2.68 | fold change (FC) [17]: 2 | Activity [19]: Active
SMILES: COc1ccc(COc2ccc(CC#N)cc2)cc1
Activity (HEK293 [3]): Active | Activity (HEK293 [5]): Active | fold change (FC) (HEK293 [6]): 4 | Activity (HEK293 [8]): Active | Activity (HEK293 [9]): Active | Activity (HEK293 [10]): Active | Activity (HEK293 [11]): Active | fold change (FC) (HEK293 [14]): 2.5 | Activity (HEK293 [15]): Dose-dependent effect | Activity (HEK293 [16]): Active | Activity (Fibroblast [18]): Active | Activity (HEK293 [20]): Active | Activity (HEK293 [21]): Active | Activity (HFF): Active

Activity [26]: tde | RLU [1]: 6.58 | RLU [2]: 4.02 | Activity [19]: Active
SMILES: N#CCc1ccc(OCc2ccc(F)cc2)cc1
fold change (FC) (Fibroblast [22]): 1.3 | Activity (Fibroblast [23]): 9% | Activity (Fibroblast [24]): Active | Activity (Fibroblast [25]): Active | Activity (NCCIT [27]): Active | Activity (Fibroblast [28]): Active | Activity (Fibroblast [29]): Active | Activity (Fibroblast [30]): 6% | Activity (HeLa [31]): Active | Activity (Fibroblast [32]): Active | Activity (Fibroblast [33]): Active | fold change (FC) (Fibroblast [34]): 7 | Activity (Fibroblast [35]): Active | Activity (Fibroblast [36]): 66% | Activity (Fibroblast [37]): 7% | Activity (NCCIT [38]): Active | fold change (FC) (Fibroblast [39]): 6 | fold change (FC) (Fibroblast [40]): 2 | Activity (Fibroblast [41]): Active | Activity (HeLa [42]): Active | fold change (FC) (Fibroblast [43]): 12 | Activity (Fibroblast [44]): Active | Activity (Fibroblast [45]): Active

Source: ChEMBL document CHEMBL3580566, “Identification of 2-[4-[(4-Methoxyphenyl)methoxy]-phenyl]acetonitrile and Derivatives as Potent Oct3/4 Inducers” (2015)
